From PubChem BioAssay (NCI)
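Protocol summary: plate cells (96-well), add compound at 5 concentrations, incubate 48 h, interpolate endpoints linearly. TGI: concentration producing complete growth inhibition.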

How the values were obtained:
Assay in all cases: inhibition of tumour cell growth, NCI panel, 48 h
[1] = test system: 786-0 renal
[2] = test system: A498 renal
[3] = test system: A549 NSCLC
[4] = test system: ACHN renal
[5] = test system: BT-549 breast
[6] = test system: CAKI-1 renal
[7] = test system: CCRF-CEM leukemia
[8] = test system: COLO 205 colon
[9] = test system: DU-145 prostate
[10] = test system: EKVX NSCLC
[11] = test system: HCT-116 colon
[12] = test system: HCT-15 colon
[13] = test system: HL-60(TB) leukemia
[14] = test system: HOP-62 NSCLC
[15] = test system: HS 578T breast
[16] = test system: HT29 colon
[17] = test system: IGROV1 ovarian
[18] = test system: K-562 leukemia
[19] = test system: KM12 colon
[20] = test system: M14 melanoma
[21] = test system: MALME-3M melanoma
[22] = test system: MCF7 breast
[23] = test system: MDA-MB-231 breast
[24] = test system: MDA-N
[25] = test system: NCI-H226 lung
[26] = test system: NCI-H23 lung
[27] = test system: NCI-H460 lung
[28] = test system: NCI-H522 lung
[29] = test system: NCI/ADR-RES ovarian
[30] = test system: OVCAR-3 ovarian
[31] = test system: OVCAR-4 ovarian
[32] = test system: OVCAR-5 ovarian
[33] = test system: OVCAR-8 ovarian
[34] = test system: PC-3 prostate
[35] = test system: SF-268 CNS
[36] = test system: SF-295 CNS
[37] = test system: SF-539 CNS
[38] = test system: SK-MEL-2 melanoma
[39] = test system: SK-MEL-28 melanoma
[40] = test system: SK-MEL-5 melanoma
[41] = test system: SK-OV-3 ovarian
[42] = test system: SN12C renal
[43] = test system: SNB-19 CNS
[44] = test system: SNB-75 CNS
[45] = test system: SR leukemia
[46] = test system: SW-620 colon
[47] = test system: T-47D breast
[48] = test system: TK-10 renal
[49] = test system: U251 CNS
[50] = test system: UACC-257 melanoma
[51] = test system: UACC-62 melanoma
[52] = test system: UO-31 renal
[53] = test system: HCC-2998 colon
[54] = test system: HOP-92 NSCLC
[55] = test system: LOX IMVI melanoma
[56] = test system: MDA-MB-435
[57] = test system: RXF 393 renal
[58] = test system: MOLT-4 leukemia
[59] = test system: RPMI-8226 leukemia

O=NNc1ccc(S(=O)(=O)c2ccc3ccccc3c2)cn1
TGI [1]: > 100 µM
TGI [2]: > 100 µM
TGI [3]: > 100 µM
TGI [4]: > 100 µM
TGI [5]: > 100 µM
TGI [6]: > 100 µM
TGI [7]: > 100 µM
TGI [8]: > 100 µM
TGI [9]: > 100 µM
TGI [10]: > 100 µM
TGI [11]: > 100 µM
TGI [12]: > 100 µM
TGI [13]: > 100 µM
TGI [14]: > 100 µM
TGI [15]: > 100 µM
TGI [16]: > 100 µM
TGI [17]: > 100 µM
TGI [18]: > 100 µM
TGI [19]: > 100 µM
TGI [20]: > 100 µM
TGI [21]: > 100 µM
TGI [22]: > 100 µM
TGI [23]: > 100 µM
TGI [24]: > 100 µM
TGI [25]: > 100 µM
TGI [26]: > 100 µM
TGI [27]: > 100 µM
TGI [28]: > 100 µM
TGI [29]: > 100 µM
TGI [30]: > 100 µM
TGI [31]: > 100 µM
TGI [32]: > 100 µM
TGI [33]: > 100 µM
TGI [34]: > 100 µM
TGI [35]: > 100 µM
TGI [36]: > 100 µM
TGI [37]: > 100 µM
TGI [38]: > 100 µM
TGI [39]: > 100 µM
TGI [40]: > 100 µM
TGI [41]: > 100 µM
TGI [42]: > 100 µM
TGI [43]: > 100 µM
TGI [44]: > 100 µM
TGI [45]: > 100 µM
TGI [46]: > 100 µM
TGI [47]: > 100 µM
TGI [48]: > 100 µM
TGI [49]: > 100 µM
TGI [50]: > 100 µM
TGI [51]: > 100 µM
TGI [52]: 58.4 µM

Cc1ccc(S(=O)(=O)N2CCNCCN(S(=O)(=O)c3ccc(C)cc3)CCNCC2)cc1
TGI [1]: 33.7 µM
TGI [2]: 47 µM
TGI [3]: > 100 µM
TGI [4]: 89.1 µM
TGI [5]: 47.1 µM
TGI [6]: 73.5 µM
TGI [8]: 31.1 µM
TGI [9]: 71.8 µM
TGI [10]: > 100 µM
TGI [53]: 33.4 µM
TGI [11]: 28.5 µM
TGI [12]: > 100 µM
TGI [13]: 25.4 µM
TGI [14]: 34.8 µM
TGI [54]: 46.7 µM
TGI [15]: 35.7 µM
TGI [16]: 30.2 µM
TGI [17]: 42.9 µM
TGI [18]: 31.4 µM
TGI [19]: 42.1 µM
TGI [55]: 25.6 µM
TGI [20]: 34.7 µM
TGI [21]: 33.1 µM
TGI [22]: 53.8 µM
TGI [23]: 60.4 µM
TGI [56]: 36.4 µM
TGI [24]: 40.9 µM
TGI [25]: 44 µM
TGI [26]: > 100 µM
TGI [27]: 36.8 µM
TGI [28]: 36.5 µM
TGI [29]: > 100 µM
TGI [30]: 27.7 µM
TGI [31]: 82.4 µM
TGI [32]: > 100 µM
TGI [33]: 36.9 µM
TGI [57]: 14.7 µM
TGI [35]: 55 µM
TGI [36]: 32 µM
TGI [37]: 34.7 µM
TGI [38]: 41.9 µM
TGI [39]: 37.6 µM
TGI [40]: 29.9 µM
TGI [41]: 41.1 µM
TGI [42]: > 100 µM
TGI [43]: > 100 µM
TGI [44]: 42.8 µM
TGI [45]: 34.1 µM
TGI [46]: > 100 µM
TGI [47]: 31.7 µM
TGI [48]: 44 µM
TGI [49]: 41.1 µM
TGI [50]: 33 µM
TGI [51]: 34.5 µM
TGI [52]: 62.6 µM

CCCCCCCCCCCCOCC1(COCCCCCCCCCCCC)COC(c2ccc(N)cc2)OC1
TGI [1]: > 100 µM
TGI [2]: > 100 µM
TGI [3]: > 100 µM
TGI [4]: > 100 µM
TGI [6]: > 100 µM
TGI [9]: > 100 µM
TGI [10]: > 100 µM
TGI [53]: > 100 µM
TGI [11]: > 100 µM
TGI [12]: > 100 µM
TGI [14]: > 100 µM
TGI [15]: > 100 µM
TGI [16]: > 100 µM
TGI [17]: > 100 µM
TGI [18]: > 100 µM
TGI [19]: > 100 µM
TGI [55]: > 100 µM
TGI [20]: > 100 µM
TGI [21]: > 100 µM
TGI [22]: > 100 µM
TGI [23]: > 100 µM
TGI [56]: > 100 µM
TGI [24]: > 100 µM
TGI [58]: > 100 µM
TGI [25]: > 100 µM
TGI [26]: > 100 µM
TGI [29]: > 100 µM
TGI [30]: > 100 µM
TGI [31]: > 100 µM
TGI [32]: > 100 µM
TGI [33]: > 100 µM
TGI [34]: > 100 µM
TGI [59]: > 100 µM
TGI [35]: > 100 µM
TGI [36]: > 100 µM
TGI [37]: > 100 µM
TGI [38]: > 100 µM
TGI [39]: > 100 µM
TGI [40]: > 100 µM
TGI [41]: > 100 µM
TGI [42]: > 100 µM
TGI [43]: > 100 µM
TGI [44]: > 100 µM
TGI [45]: > 100 µM
TGI [46]: > 100 µM
TGI [47]: > 100 µM
TGI [48]: > 100 µM
TGI [49]: > 100 µM
TGI [50]: > 100 µM
TGI [51]: > 100 µM
TGI [52]: > 100 µM

COC(=O)c1ccc2c(c1)CC1(C2)Cc2ccccc2C1=O (centres undefined)
TGI [1]: > 100 µM
TGI [2]: > 100 µM
TGI [3]: > 100 µM
TGI [4]: > 100 µM
TGI [6]: > 100 µM
TGI [7]: 56.5 µM
TGI [8]: 42.4 µM
TGI [9]: > 100 µM
TGI [10]: 88.1 µM
TGI [53]: > 100 µM
TGI [11]: 69.4 µM
TGI [12]: > 100 µM
TGI [13]: 56.9 µM
TGI [14]: > 100 µM
TGI [54]: 82.9 µM
TGI [15]: > 100 µM
TGI [16]: 36 µM
TGI [17]: > 100 µM
TGI [18]: > 100 µM
TGI [55]: 57.4 µM
TGI [20]: 38.6 µM
TGI [21]: 67.1 µM
TGI [22]: 52.5 µM
TGI [23]: 84.8 µM
TGI [56]: 58.5 µM
TGI [24]: 59.8 µM
TGI [58]: 34.4 µM
TGI [25]: 52.7 µM
TGI [26]: > 100 µM
TGI [27]: > 100 µM
TGI [28]: > 100 µM
TGI [29]: 68.6 µM
TGI [30]: > 100 µM
TGI [31]: > 100 µM
TGI [32]: > 100 µM
TGI [33]: > 100 µM
TGI [34]: > 100 µM
TGI [59]: 38 µM
TGI [57]: > 100 µM
TGI [35]: > 100 µM
TGI [36]: > 100 µM
TGI [37]: > 100 µM
TGI [38]: 69.8 µM
TGI [39]: 38.7 µM
TGI [40]: 32.6 µM
TGI [41]: > 100 µM
TGI [42]: > 100 µM
TGI [43]: > 100 µM
TGI [44]: 67.3 µM
TGI [45]: 65.7 µM
TGI [46]: > 100 µM
TGI [47]: > 100 µM
TGI [48]: > 100 µM
TGI [49]: > 100 µM
TGI [50]: 35.2 µM
TGI [52]: > 100 µM
